Measurements published in patent publication US9456602B2, “Method for the formulation of hand sanitizer” (Working Bugs, LLC, priority 2011, dated 2016).

Assays:
[1] = system: microorganisms; details: 1996 paper, Fundamental and Applied Toxicology; cited from earlier work
[2] = system: Seratia marcescens (S. marcescens); assay: Growth test of S. marcescens after exposure to sanitizer, dilution plating (Example 1); assay type: cell-based
Description: A 50 mL culture of the bacterium […] marcescens (S. marcescens) was grown, and four compounds were tested: an ethanol-based hand sanitizer currently on the market with 63% ethyl alcohol as the active ingredient, 60% isopropyl alcohol, and water as a control. 0.05 mL of the culture was exposed to one of the compounds for 15 and 60 seconds (except for the water, which was exposed for 30 seconds), and diluted by factors of powers of ten from a 10^-1 dilution to a 10^-10 dilution. 1 mL of each dilution was plated onto a CASO (a type of media) plate, and was incubated at 25 degrees Celsius (77 degrees Fahrenheit) for 48 hours. The colonies on the plates were then counted. The following is a table of the number of colonies on each plate (note-“Lawn” means that there were too many colonies to count individually).

[3] = system: E. coli bacteria; assay: Growth test of E. coli after exposure to sanitizer, dilution plating (Example 2); assay type: cell-based
Description: A 50 mL culture of the bacterium […] marcescens (S. marcescens) was grown, and four compounds were tested: an ethanol-based hand sanitizer currently on the market with 63% ethyl alcohol as the active ingredient, 60% isopropyl alcohol, and water as a control. 0.05 mL of the culture was exposed to one of the compounds for 15 and 60 seconds (except for the water, which was exposed for 30 seconds), and diluted by factors of powers of ten from a 10^-1 dilution to a 10^-10 dilution. 1 mL of each dilution was plated onto a CASO (a type of media) plate, and was incubated at 25 degrees Celsius (77 degrees Fahrenheit) for 48 hours. The colonies on the plates were then counted. The following is a table of the number of colonies on each plate (note-“Lawn” means that there were too many colonies to count individually). Example 2 followed the same protocol as Example 1, except E. coli bacteria were used instead of S. marcescens.

[4] = system: E. coli bacteria; assay: Growth test of E. coli, different growth medium, 0.5 mL plated (Example 3); assay type: cell-based; details: exposed 10 s
Description: A 50 mL culture of the bacterium […] marcescens (S. marcescens) was grown, and four compounds were tested: an ethanol-based hand sanitizer currently on the market with 63% ethyl alcohol as the active ingredient, 60% isopropyl alcohol, and water as a control. 0.05 mL of the culture was exposed to one of the compounds for 15 and 60 seconds (except for the water, which was exposed for 30 seconds), and diluted by factors of powers of ten from a 10^-1 dilution to a 10^-10 dilution. 1 mL of each dilution was plated onto a CASO (a type of media) plate, and was incubated at 25 degrees Celsius (77 degrees Fahrenheit) for 48 hours. The colonies on the plates were then counted. The following is a table of the number of colonies on each plate (note-“Lawn” means that there were too many colonies to count individually). Example 2 followed the same protocol as Example 1, except E. coli bacteria were used instead of S. marcescens. Example 3 followed the same protocol as Example 2, except for the following: A different type of growth medium was used on the plates, and 0.5 mL of culture was plated onto each plate instead of 1 mL in order to prevent flooding the plate. In this Example, 60% isopropanol, an ethanol-based hand sanitizer on the market and the hand sanitizer proposed in the patent were all exposed to bacteria for 10 seconds, than plated.

[5] = system: E. coli bacteria; assay: Growth test of E. coli, 15 s exposure, CASO plate (Example 4); assay type: cell-based; details: exposed 15 seconds, 0.1 mL plated
Description: (§1) Both S. marcescens and E. coil were cultured in CASO broth overnight. The cells were exposed to one of four compounds for 15 seconds: DE broth, 60% Isopropyl Alcohol (IPA), A hand sanitizer on the market with 62% ethanol as an active ingredient (HSM), and the hand sanitizer specified in the patent (WB). The samples were then diluted by factors of powers of ten from a 10^−1 dilution to a 10^−10 dilution. 0.1 mL of each dilution was then plated onto a CASO plate, and then incubated for 24 hours. Note—the abbreviation “TNTC” stands for “too numerous to count”. “Lawn” represents a sample that was filled with bacteria.

[6] = system: S. marcescens bacteria; assay: Growth test of S. marcescens, 15 s exposure, CASO plate (Example 4); assay type: cell-based; details: exposed 15 seconds, 0.1 mL plated
Description: as §1

[7] = system: E. coli bacteria; assay: Growth test of E. coli, 15 s exposure (Example 5); assay type: cell-based; details: exposed 15 seconds
Description: (§2) Both S. marcescens and E. coil were cultured in CASO broth overnight. The cells were exposed to one of four compounds for 15 seconds: DE broth, 60% Isopropyl Alcohol (IPA), A hand sanitizer on the market with 62% ethanol as an active ingredient (HSM), and the hand sanitizer specified in the patent (WB). The samples were then diluted by factors of powers of ten from a 10^−1 dilution to a 10^−10 dilution. 0.1 mL of each dilution was then plated onto a CASO plate, and then incubated for 24 hours. For Example 5, there was no ethanol present in the hand sanitizer formulation. The formulation consisted of 45% by volume of n-butanol, 10% of the humectant, and the remainder being water. The protocol followed for Example 5 was the same as the protocol for Example 4.

[8] = system: S. marcescens bacteria; assay: Growth test of S. marcescens, 15 s exposure (Example 5); assay type: cell-based; details: exposed 15 seconds
Description: as §2

CCCCCO [1-pentanol]
effectiveness in killing microorganisms compared with ethanol [1]: more effective

CCCO [1-propanol]
effectiveness in killing microorganisms compared with ethanol [1]: more effective

CCCCO [1-butanol]
effectiveness in killing microorganisms compared with ethanol [1]: more effective

CC(C)O [IPA, isopropyl alcohol]
number of colonies on plate ([2]; exposed 15 s, 10^−1 dilution): 0 colonies
number of colonies on plate ([2]; exposed 15 s, 10^−2 dilution): 0 colonies
number of colonies on plate ([2]; exposed 15 s, 10^−3 dilution): 0 colonies
number of colonies on plate ([2]; exposed 15 s, 10^−4 dilution): 0 colonies
number of colonies on plate ([2]; exposed 15 s, 10^−5 dilution): 0 colonies
number of colonies on plate ([2]; exposed 15 s, 10^−6 dilution): 0 colonies
number of colonies on plate ([2]; exposed 15 s, 10^−7 dilution): 0 colonies
number of colonies on plate ([2]; exposed 15 s, 10^−8 dilution): 0 colonies
number of colonies on plate ([2]; exposed 15 s, 10^−9 dilution): 0 colonies
number of colonies on plate ([2]; exposed 15 s, 10^−10 dilution): 0 colonies
number of colonies on plate ([2]; exposed 60 s, 10^−1 dilution): 0 colonies
number of colonies on plate ([2]; exposed 60 s, 10^−2 dilution): 0 colonies
number of colonies on plate ([2]; exposed 60 s, 10^−3 dilution): 0 colonies
number of colonies on plate ([2]; exposed 60 s, 10^−4 dilution): 0 colonies
number of colonies on plate ([2]; exposed 60 s, 10^−5 dilution): 0 colonies
number of colonies on plate ([2]; exposed 60 s, 10^−6 dilution): 0 colonies
number of colonies on plate ([2]; exposed 60 s, 10^−7 dilution): 0 colonies
number of colonies on plate ([2]; exposed 60 s, 10^−8 dilution): 0 colonies
number of colonies on plate ([2]; exposed 60 s, 10^−9 dilution): 0 colonies
number of colonies on plate ([2]; exposed 60 s, 10^−10 dilution): 0 colonies
number of colonies on plate ([3]; exposed 15 s, 10^−1 dilution): 0 colonies
number of colonies on plate ([3]; exposed 15 s, 10^−2 dilution): 0 colonies
number of colonies on plate ([3]; exposed 15 s, 10^−3 dilution): 0 colonies
number of colonies on plate ([3]; exposed 15 s, 10^−4 dilution): 0 colonies
number of colonies on plate ([3]; exposed 15 s, 10^−5 dilution): 0 colonies
number of colonies on plate ([3]; exposed 15 s, 10^−6 dilution): 0 colonies
number of colonies on plate ([3]; exposed 15 s, 10^−7 dilution): 0 colonies
number of colonies on plate ([3]; exposed 15 s, 10^−8 dilution): 0 colonies
number of colonies on plate ([3]; exposed 15 s, 10^−9 dilution): 0 colonies
number of colonies on plate ([3]; exposed 15 s, 10^−10 dilution): 0 colonies
number of colonies on plate ([3]; exposed 60 s, 10^−1 dilution): 0 colonies
number of colonies on plate ([3]; exposed 60 s, 10^−2 dilution): 0 colonies
number of colonies on plate ([3]; exposed 60 s, 10^−3 dilution): 0 colonies
number of colonies on plate ([3]; exposed 60 s, 10^−4 dilution): 0 colonies
number of colonies on plate ([3]; exposed 60 s, 10^−5 dilution): 0 colonies
number of colonies on plate ([3]; exposed 60 s, 10^−6 dilution): 0 colonies
number of colonies on plate ([3]; exposed 60 s, 10^−7 dilution): 0 colonies
number of colonies on plate ([3]; exposed 60 s, 10^−8 dilution): 0 colonies
number of colonies on plate ([3]; exposed 60 s, 10^−9 dilution): 0 colonies
number of colonies on plate ([3]; exposed 60 s, 10^−10 dilution): 0 colonies
number of colonies on plate ([4]; 10^−1 dilution): 0 colonies
number of colonies on plate ([4]; 10^−2 dilution): 0 colonies
number of colonies on plate ([4]; 10^−3 dilution): 0 colonies
number of colonies on plate ([4]; 10^−4 dilution): 0 colonies
number of colonies on plate ([4]; 10^−5 dilution): 0 colonies
number of colonies on plate ([4]; 10^−6 dilution): 0 colonies
number of colonies on plate ([4]; 10^−7 dilution): 0 colonies
number of colonies on plate ([4]; 10^−8 dilution): 0 colonies
number of colonies on plate ([4]; 10^−9 dilution): 0 colonies
number of colonies on plate ([4]; 10^−10 dilution): 0 colonies
growth test plate count ([5]; 10^−1 dilution): 0
growth test plate count ([5]; 10^−2 dilution): 0
growth test plate count ([5]; 10^−3 dilution): 0
growth test plate count ([5]; 10^−4 dilution): 0
growth test plate count ([5]; 10^−5 dilution): 0
growth test plate count ([6]; 10^−1 dilution): 1
growth test plate count ([6]; 10^−2 dilution): 3
growth test plate count ([6]; 10^−3 dilution): 10
growth test plate count ([6]; 10^−4 dilution): 6
growth test plate count ([6]; 10^−5 dilution): 2
growth test plate count ([7]; 10^−1 dilution): 0
growth test plate count ([7]; 10^−2 dilution): 0
growth test plate count ([7]; 10^−3 dilution): 0
growth test plate count ([7]; 10^−4 dilution): 0
growth test plate count ([7]; 10^−5 dilution): 0
growth test plate count ([8]; 10^−1 dilution): 0
growth test plate count ([8]; 10^−2 dilution): 0
growth test plate count ([8]; 10^−3 dilution): 0
growth test plate count ([8]; 10^−4 dilution): 0
growth test plate count ([8]; 10^−5 dilution): 0
